Reference: patent publication US8404738B2 (Hoffmann-La Roche Inc., priority 2011, dated 2013)
Like-named read-outs stand apart in the source and are kept apart here.

Legend:
HDAC6 = target: T1, HDAC6 (Homo sapiens, UniProt Q9UBN7); test: Tubulin acetylation cytoblot assay (A549 cells); format: cell-based; conditions: 17-18 h incubation, tubulin acetylation as marker of HDAC6 inhibition, read-out: Tub-Ac EC50
T1 construct: endogenous in cells; host or cells: A549 cells
T1 sequence (Q9UBN7 1-1215): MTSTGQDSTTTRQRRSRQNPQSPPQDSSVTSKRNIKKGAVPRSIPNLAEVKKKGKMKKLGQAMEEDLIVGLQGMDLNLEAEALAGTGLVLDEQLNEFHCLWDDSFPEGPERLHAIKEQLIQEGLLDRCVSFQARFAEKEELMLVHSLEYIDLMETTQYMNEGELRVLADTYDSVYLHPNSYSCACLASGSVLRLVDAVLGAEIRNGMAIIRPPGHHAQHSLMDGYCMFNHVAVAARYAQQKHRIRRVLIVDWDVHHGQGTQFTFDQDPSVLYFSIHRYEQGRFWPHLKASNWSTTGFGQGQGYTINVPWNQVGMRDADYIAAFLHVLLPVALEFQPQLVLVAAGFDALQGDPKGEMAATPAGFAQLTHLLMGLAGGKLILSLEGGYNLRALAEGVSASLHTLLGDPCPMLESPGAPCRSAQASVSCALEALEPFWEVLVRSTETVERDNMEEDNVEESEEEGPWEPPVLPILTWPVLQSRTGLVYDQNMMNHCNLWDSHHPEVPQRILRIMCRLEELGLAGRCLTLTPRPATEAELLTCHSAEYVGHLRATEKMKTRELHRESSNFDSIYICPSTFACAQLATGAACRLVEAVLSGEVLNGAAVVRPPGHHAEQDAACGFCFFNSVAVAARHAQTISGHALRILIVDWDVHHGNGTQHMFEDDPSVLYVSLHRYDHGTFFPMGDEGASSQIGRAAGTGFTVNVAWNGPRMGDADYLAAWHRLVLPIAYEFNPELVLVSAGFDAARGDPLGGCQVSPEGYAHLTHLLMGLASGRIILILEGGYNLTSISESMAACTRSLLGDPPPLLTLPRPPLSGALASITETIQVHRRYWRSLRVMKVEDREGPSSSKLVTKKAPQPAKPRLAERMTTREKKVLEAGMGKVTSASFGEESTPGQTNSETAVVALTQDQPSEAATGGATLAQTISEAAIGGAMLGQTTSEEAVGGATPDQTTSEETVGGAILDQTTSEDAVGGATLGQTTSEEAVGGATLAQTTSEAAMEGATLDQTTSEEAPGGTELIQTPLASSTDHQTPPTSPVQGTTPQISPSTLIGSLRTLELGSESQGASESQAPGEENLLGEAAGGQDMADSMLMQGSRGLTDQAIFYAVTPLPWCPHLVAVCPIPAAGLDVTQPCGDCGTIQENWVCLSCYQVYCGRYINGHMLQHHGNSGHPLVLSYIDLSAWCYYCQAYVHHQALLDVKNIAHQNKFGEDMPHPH
Experimental: Tubulin Acetylation Induction by Novel Compounds: Tubulin Acetylation Cytoblot Assay.
Tubulin acetylation is a PD marker for HDAC6 inhibition. The extent of tubulin acetylation represents the inhibitory effect on HDAC6.
Novel compounds were tested for their ability to inhibit HDAC6 using a cell-based deacetylation assay. Tubulin acetylation was detected by the anti-acetylated tubulin antibody (Sigma) and horse radish peroxidase (HRP) conjugated secondary antibody (KangChen Bio. Tech.). […] 20 μl of diluted compound solution was transferred to the cell culture plate and incubated for 17-18 h. After medium removal and fixation by formaldehyde (3.7% paraformaldehyde in TBS), the cells in the plates were treated with 180 μl of −20° C. MeOH and incubated for 5 min at rt. The cell lysis was incubated with 75 μl of primary anti-acetylated tubulin antibody and secondary HRP conjugated antibody solution (1:750 anti-acetylated tubulin, 1:750 HRP conjugated anti-mouse IgG in antibody dilution buffer not containing sodium azide) for 4 h at 4° C. By adding the HRP substrate, enhanced chemiluminescence (ECL) reagent (GE Healthcare) generated luminescence corresponding to the level of tubulin acetylation. So that 75 μl of ECL was added into the wells and the luminescence from each well was immediately quantified by the plate reader. Based on the luminescence reading, the Tub-Ac EC50s against HDAC6 of the tested compounds were calculated by plotting the curve with XLfit4.0 software. Inhibition %=[signal(sample)−Mean(bottom)]×100/[Mean(top)−Mean(bottom)]

recombinant human HDAC8 = target: T2, recombinant human HDAC8 (Homo sapiens, UniProt Q9BY41); test: HDAC8 inhibition: recombinant HDAC8 fluorometric assay; format: biochemical
T2 construct: made in house; host or cells: insect cells
T2 sequence (Q9BY41 1-377): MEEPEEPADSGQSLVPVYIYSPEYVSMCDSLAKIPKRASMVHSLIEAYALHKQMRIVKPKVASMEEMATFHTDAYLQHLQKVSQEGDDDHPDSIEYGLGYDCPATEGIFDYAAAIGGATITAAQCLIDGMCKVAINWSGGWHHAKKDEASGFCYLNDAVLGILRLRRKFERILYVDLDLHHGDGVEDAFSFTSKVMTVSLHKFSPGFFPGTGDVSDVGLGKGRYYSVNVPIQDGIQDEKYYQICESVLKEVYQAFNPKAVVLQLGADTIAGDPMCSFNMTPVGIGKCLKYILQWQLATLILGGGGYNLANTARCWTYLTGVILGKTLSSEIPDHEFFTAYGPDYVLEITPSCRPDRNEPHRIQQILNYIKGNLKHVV
Experimental: HDAC8 Inhibition by Novel Compounds: Recombinant HDAC8 Fluorometric Assay.
A competitive inhibitory assay of HDAC8 was carried out by using recombinant HDAC8 and a commercial substrate Ac-Arg-His-Lys-Lys(ε-acetyl)-AMC.
Compounds were tested for their ability to inhibit histone deacetylase 8 using an in vitro deacetylation assay. The enzyme source for this assay was recombinant human HDAC8 protein expressed and purified from insect cells. […] The substrate consisted of a commercial product Ac-Arg-His-Lys-Lys(ε-acetyl)-AMC (substrate is available from Cayman Chemical). […] 1 μl of half-log diluted compounds were added into wells and incubated for 15 min at rt. After that, 8 μl of substrate solution was transferred to the wells and incubated for 30 min at rt. After deacetylation of the substrate by incubation with HDAC8 enzyme, subsequent exposure to a developing reagent produced a fluorophore that was directly proportional to the level of deacetylation. […] The fluorescence signal was measured by a FlexStation3 plate reader (excitation wave length 340-360 nm; emission wave length 440-465 nm). The HDAC8 IC50 was calculated after normalization and curve fitting using XLfit4.0 software. Inhibition %=[Mean(top)−signal(sample)]×100/[Mean(top)−Mean(bottom)].

[1] = tested on: p21 promoter-luciferase construct; test: p21 reporter gene induction (HeLa cells, p21 promoter-luciferase construct); conditions: for p21 RP3: relative gene level of p21 compared to MS275 at 3 μM; for p21 RP10: relative level of p21 compared to MS275 at 10 μM; for p21 RP30: relative level of p21 compared to MS275 at 30 μM;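 for all read-outs here: transfected HeLa cells exposed to compound for 15 h, luciferase luminescence read from lysates, p21 promoter lacks p53 site, proxy for cellular HDAC1/2/3 inhibition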
Experimental: As a surrogate for in-cell HDAC1/2/3 inhibition, p21 induction was used as a counterscreen to evaluate the selectivity of the compounds in the present invention toward HDAC6 or HDAC8.
The novel compounds of the present invention were tested for their ability to induce p21 gene expression using a reporter gene assay involving HeLa cells transfected with a p21 promoter-luciferase construct. The p21 promoter contained the Sp1/Sp3 binding site for HDAC but not the upstream p53 binding site. Briefly, the day before transfection, HeLa cells were seeded at 11,000 cells/well in a 96-well culture plate and incubated at 37° C. in 5% CO2 overnight. A transfection media was prepared prior to transfection according to the following procedure: (1) 5 μl serum-free DMEM, 0.15 μl Fugene 6 reagent, 40 ng p21-luc, 10 ng GFP were mixed gently and incubated at rt for 30 minutes; (2), then 98 μl DMEM (with 10% FBS, 1% penicillin and streptomycin) was added to the DNA: Fugene 6 reagent complex and mixed gently. For transfection, the medium was removed and replaced with 100 μl/well transfection media which was prepared according to the procedure above. After incubating the cells for 24 hours at 37° C. in 5% CO2, fresh media and test compounds were added to the wells and the cells further incubated for 15 hours at 37° C. in 5% CO2. Cells were lysed by adding 80 μl/well of a cell culture lysis reagent (Promega). 50 μl of each lysate was taken for GFP detection using an excitation wavelength of 486 nm and detection at 527 nm. 100 μl luciferase assay reagent (Promega) was then added to every 20 μl cell lysate for luminometer detection.

[2] = recombinant human HDAC8, substrate Ac-Arg-His-Lys-Lys(ε-acetyl)-AMC, read-out: HDAC8 IC50

| SMILES | EC50 (HDAC6) [nM] | IC50 (recombinant human HDAC8; [2]) [nM] | p21 RP3 [1] | p21 RP10 [1] | p21 RP30 [1] | IC50 (recombinant human HDAC8; HDAC8 IC50, recombinant human HDAC8, substrate Ac-Arg-His-Lys-Lys(ε-acetyl)-AMC) [nM] |
| --- | --- | --- | --- | --- | --- | --- |
| O=C(NO)c1ccc(NC2CCN(c3ccccc3)C2=O)cc1 (stereo not shown) [Example 1] | 5860 | – | 0.08 | 0.08 | 0.15 | 810 |
| O=C(NO)c1ccc(NC2CCN(c3ccc(C(F)(F)F)cc3)C2=O)cc1 (stereo not shown) [Example 12, N-Hydroxy-4-[2-oxo-1-(4-trifluoromethyl-phenyl)-pyrrolidin-3-ylamino]-benzamide] | – | 990 | 0.01 | 0.10 | 0.14 | – |
| CCCCc1ccc(N2CCC(Nc3ccc(C(=O)NO)cc3)C2=O)cc1 (stereo not shown) [Example 15, 4-[1-(4-Butyl-phenyl)-2-oxo-pyrrolidin-3-ylamino]-N-hydroxy-benzamide] | 4900 | – | 0.09 | 0.06 | 0.04 | – |
| O=C(NO)c1ccc(NC2CCN(c3ccc(Cl)cc3Cl)C2=O)cc1 (stereo not shown) [Example 23, 4-[1-(2,4-Dichloro-phenyl)-2-oxo-pyrrolidin-3-ylamino]-N-hydroxy-benzamide] | – | 1410 | 0.10 | 0.04 | 0.03 | – |
| O=C(NO)c1ccc(NC2CCN(CCc3ccccc3)C2=O)cc1 (stereo not shown) [Example 43, N-Hydroxy-4-(2-oxo-1-phenethyl-pyrrolidin-3-ylamino)-benzamide] | – | 390 | −0.02 | 0.22 | 0.62 | – |
| COc1ccc(CN2CCC(Nc3ccc(C(=O)NO)cc3)C2=O)cc1 (stereo not shown) [Example 46, N-Hydroxy-4-[1-(4-methoxy-benzyl)-2-oxo-pyrrolidin-3-ylamino]-benzamide] | – | 390 | 0.07 | 0.26 | 0.70 | – |
| O=C(NO)c1ccc(NC2CCN(C3(c4ccccc4)CCC3)C2=O)cc1 (stereo not shown) [Example 54, N-Hydroxy-4-[2-oxo-1-(1-phenyl-cyclobutyl)-pyrrolidin-3-ylamino]-benzamide] | – | 310 | 0.28 | 0.46 | 0.79 | – |
| CCC1(Nc2ccc(C(=O)NO)cc2)CCN(C(C)(C)c2ccccc2)C1=O (stereo not shown) [Example 65, 4-[3-Ethyl-1-(1-methyl-1-phenyl-ethyl)-2-oxo-pyrrolidin-3-ylamino]-N-hydroxy-benzamide] | – | 560 | 0.00 | 0.00 | 0.00 | – |
| O=C(NO)c1ccc(NC2CCN(c3ccc(Cl)c(Cl)c3)C2=O)cc1F (stereo not shown) [Example 68, 4-[1-(3,4-Dichloro-phenyl)-2-oxo-pyrrolidin-3-ylamino]-2-fluoro-N-hydroxy-benzamide] | 6670 | – | −0.05 | 0.02 | 0.01 | – |

The next lines start with results.

| EC50 (HDAC6) [nM] | IC50 (recombinant human HDAC8; [2]) [nM] | SMILES | p21 RP3 [1] | p21 RP10 [1] | p21 RP30 [1] | IC50 (recombinant human HDAC8; HDAC8 IC50, recombinant human HDAC8, substrate Ac-Arg-His-Lys-Lys(ε-acetyl)-AMC) [nM] |
| --- | --- | --- | --- | --- | --- | --- |
| 1250 | 850 | C[C@H]1[C@H](Nc2ccc(C(=O)NO)cc2)CC(=O)N1c1ccc(Cl)cc1 (racemic) [Example 77, Trans-4-[1-(4-Chloro-phenyl)-2-methyl-5-oxo-pyrrolidin-3-ylamino]-N-hydroxy-benzamide] | 0.00 | 0.07 | 0.07 | – |
| 3020 | 1880 | CC(C)(c1ccccc1)N1CC(Nc2ccc(C(=O)NO)cc2)CC1=O (stereo not shown) [Example 76, N-Hydroxy-4-[1-(1-methyl-1-phenyl-ethyl)-5-oxo-pyrrolidin-3-ylamino]-benzamide] | – | – | – | – |
| – | 2770 | O=C(NO)c1ccc(NC2CCN(S(=O)(=O)c3ccccc3)C2)cc1 (stereo not shown) [Example 84, 4-(1-Benzenesulfonyl-pyrrolidin-3-ylamino)-N-hydroxy-benzamide] | 0.13 | 0.02 | 0.01 | – |
| – | 1540 | O=C(NO)c1ccc(NC2CCN(S(=O)(=O)c3ccc(Cl)cc3)C2)cc1 (stereo not shown) [Example 86, 4-[1-(4-Chloro-benzenesulfonyl)-pyrrolidin-3-ylamino]-N-hydroxy-benzamide] | 0.04 | 0.01 | 0.01 | – |
| – | 2010 | O=C(NO)c1ccc(NC2CCN(S(=O)(=O)c3ccc(-c4ccccc4)cc3)C2)cc1 (stereo not shown) [Example 87, 4-[1-(Biphenyl-4-sulfonyl)-pyrrolidin-3-ylamino]-N-hydroxy-benzamide] | 0.20 | 0.00 | −0.03 | – |
| – | 1350 | O=C(NO)c1ccc(NC2CCN(C(=O)c3ccccc3)C2)cc1 (stereo not shown) [Example 88, 4-(1-Benzoyl-pyrrolidin-3-ylamino)-N-hydroxy-benzamide] | 0.35 | 0.06 | 0.03 | – |
| – | 900 | O=C(NO)c1ccc(NC2CCN(C(=O)c3ccc(F)cc3)C2)cc1 (stereo not shown) [Example 89, 4-[1-(4-Fluoro-benzoyl)-pyrrolidin-3-ylamino]-N-hydroxy-benzamide] | 0.38 | 0.10 | 0.06 | – |
| – | 920 | COc1ccc(C(=O)N2CCC(Nc3ccc(C(=O)NO)cc3)C2)cc1 (stereo not shown) [Example 90, N-Hydroxy-4-[1-(4-methoxy-benzoyl)-pyrrolidin-3-ylamino]-benzamide] | 0.38 | 0.09 | 0.05 | – |
| 150 | 980 | CC1(Nc2ccc(C(=O)NO)cc2)C(=O)N(CCc2ccccc2)c2ccccc21 (stereo not shown) [Example 94, N-hydroxy-4-(3-methyl-2-oxo-1-phenethyl-2,3-dihydro-1H-indol-3-ylamino)-benzamide] | – | – | – | – |
